Consider eight compounds from patent publication US20240350659A1, “COMPOSITIONS AND METHODS FOR BIMODAL ANTI-VIRAL COMBINATION THERAPY” (priority 2021, published 2024).

Broadly, the inhibition is the share of the control response that was lost under treatment.

Assay [1] deals with SARS-COV-2. Nature of the assay: Human ACE2 transgenic COVID-19 mouse model (intranasal SARS-COV-2 infection). In kind it is in vivo, mice. The conditions noted are these: for Survival (%): Daily.
Assay [2] concerns SARS-COV-2. Description: In vitro inhibition of SARS-COV-2 replication in Vero E6 cells (viral load by quantitative real-time RT-PCR). It is filed as cell-based. The note with it: for effect of removal of the single agent from the formulation on overall activity (FIG. 18): APHR Combination 1 minus one agent. A general note: Real-time PCR tracks product formation cycle by cycle.
In assay [3] the test system is SARS-COV-2. The note with it: WHO Solidarity Trial; cited from earlier work.
Assay [4] deals with SARS-COV-2. In kind it is in vivo. The conditions noted are these: intention-to-treat population; 10 subjects per arm.
The subject of assay [5] is SARS-COV-2. The note with it: 5-day course, 476 patients, mild COVID-19; cited from earlier work.
[6] abbreviates: 200 mg/kg, Pretreatment to Day 7.

Consider `O=c1c(O)c(-c2ccc(O)c(O)c2)oc2cc(O)cc(O)c12` [Quercitin], for which the “Survival (%)” value in the assay with SARS-COV-2 [1] (66 mg/kg, Pretreatment to Day 7) came out at 80%; with SARS-COV-2 [1] (setting [6]) it was 100%.

For the compound `CCC(CC)COC(=O)[C@H](C)N[P@](=O)(OC[C@H]1O[C@@](C#N)(c2ccc3c(N)ncnn23)[C@H](O)[C@@H]1O)Oc1ccccc1` [Remdesivir], the “Survival (%)” value with SARS-COV-2 [1] (50 mg/kg, Day 1 post-treatment to 7) is 100%; in the assay with SARS-COV-2 [1] (setting [6]), 100%.

For the compound `CC(C)=CCC[C@](C)(O)C1CC=C(C)CC1` (stereo partly shown) [bisabolol], in the assay with SARS-COV-2 [2], the “effect of removal of the single agent from the formulation on overall activity (FIG. 18)” value was “reduced overall activity”.

With `CCN(CCO)CCCC(C)Nc1ccnc2cc(Cl)ccc12` (stereo not shown) [hydroxychloroquine], the “effect on hospitalized patients with Covid-19” value in the assay on SARS-COV-2 [3] is “little or no effect”.

Turning to `Cc1cccc(C)c1OCC(=O)N[C@@H](Cc1ccccc1)[C@@H](O)C[C@H](Cc1ccccc1)NC(=O)[C@H](C(C)C)N1CCCNC1=O` [lopinavir], the “effect on hospitalized patients with Covid-19” value with SARS-COV-2 [3] is reported as “little or no effect”.

For the compound `C[C@@H]1O[C@@H](OC[C@H]2O[C@@H](Oc3c(-c4ccc(O)c(O)c4)oc4cc(O)cc(O)c4c3=O)[C@H](O)[C@@H](O)[C@@H]2O)[C@H](O)[C@H](O)[C@H]1O` [rutin], in the assay with SARS-COV-2 [2] (Severe acute respiratory syndrome coronavirus 2, Vero C1008, 1 μM final concentration, 1:1 molar ratio of cyclodextrin to rutin, read-out: inhibition of SARS-COV-2 replication over untreated (FIG. 16)), the inhibition at 1 µM was approximately 25%.

Turning to `O=C(OC[C@H]1O[C@@H](OC(=O)c2cc(O)c(O)c(OC(=O)c3cc(O)c(O)c(O)c3)c2)[C@H](OC(=O)c2cc(O)c(O)c(OC(=O)c3cc(O)c(O)c(O)c3)c2)[C@@H](OC(=O)c2cc(O)c(O)c(OC(=O)c3cc(O)c(O)c(O)c3)c2)[C@@H]1OC(=O)c1cc(O)c(O)c(OC(=O)c2cc(O)c(O)c(O)c2)c1)c1cc(O)c(O)c(OC(=O)c2cc(O)c(O)c(O)c2)c1` [tannic acid], in the assay on SARS-COV-2 [2], the “effect of removal of the single agent from the formulation on overall activity (FIG. 18)” value is listed as “reduced overall activity”.

Take ivermectin: in the assay on SARS-COV-2 [1] (β-cyclodextrin Rutin daily from Day 2 post infection, Ivermectin once on Day 2 post infection), the “morbidity, body weight (FIG. 8)” value is reported as “decreased morbidity”. For the same compound, in the assay with SARS-COV-2 [4], the “Time to defervescence (days)” value was 4 (3 to 6) days and the “Time to resolution of COVID symptoms (days)” value was 4 (3 to 6) days. The “duration of symptoms compared with placebo” value in the assay with SARS-COV-2 [5] is given as “not significantly different”.
